Where a SMILES comes first, the peptide text is derived from it. [ ]: non-standard residue; d: D form. αMeP = C[C@@]1(C(=O)O)CCCN1
Experiments:
[1] = target: Receptor-type tyrosine-protein kinase FLT3 (Homo sapiens, UniProt P36888, ITD); assay type: cell-based, MV4-11
[2] = target: T1, Tyrosine-protein kinase BTK (Homo sapiens, UniProt Q06187)
Description: Inhibition of wild type BTK (unknown origin) stably transfected in HEK293 cells

[3] = target: T1, Tyrosine-protein kinase BTK; remark: listed apart in the source
Description: Inhibition of wild type BTK (unknown origin)

clinical [4] = settings: human, in vivo, po
Description: Oral bioavailability in human

clinical [5] = settings: human
Neuromedin-K receptor = target: T2, Neuromedin-K receptor (Homo sapiens, UniProt P29371)
T2 sequence (P29371 whole entry): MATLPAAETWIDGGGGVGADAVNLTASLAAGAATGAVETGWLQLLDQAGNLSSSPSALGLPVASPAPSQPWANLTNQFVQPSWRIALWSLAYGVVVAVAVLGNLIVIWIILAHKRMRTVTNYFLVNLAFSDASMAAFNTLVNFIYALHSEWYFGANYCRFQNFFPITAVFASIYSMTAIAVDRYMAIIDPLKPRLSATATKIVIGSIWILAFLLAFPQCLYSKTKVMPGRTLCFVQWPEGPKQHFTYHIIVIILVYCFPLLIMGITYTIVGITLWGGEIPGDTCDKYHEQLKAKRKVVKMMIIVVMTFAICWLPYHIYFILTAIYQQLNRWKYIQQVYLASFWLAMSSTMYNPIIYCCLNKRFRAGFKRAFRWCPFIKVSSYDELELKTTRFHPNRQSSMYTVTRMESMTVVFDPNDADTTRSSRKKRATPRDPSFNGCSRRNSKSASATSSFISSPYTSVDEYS
Description: Binding affinity to human recombinant NK3R assessed as inhibition constant

clinical [6] = settings: human, in vivo, po; remark: listed apart in the source
clinical [7] = settings: human; remark: listed apart in the source
[8] = Cmax in human at 200 mg; assay type: ADME
[9] = Apparent volume of distribution at steady state in human at 200 mg; assay type: ADME; settings: read-out: Vdss(app)
[10] = Plasma protein binding in human; assay type: ADME, cell-free; settings: read-out: PPB
[11] = Cmax in human; assay type: ADME
[12] = AUC in human; assay type: ADME
CYP3A4 = CYP3A4 (Homo sapiens, UniProt P08684); experiment: Inhibition of CYP3A4 (unknown origin) at 10 uM relative to control; assay type: ADME
in vivo = settings: mouse, iv, 3 mg/kg

Receptor-type tyrosine-protein kinase FLT3, sequence (P36888 whole entry, looked up, change not shown): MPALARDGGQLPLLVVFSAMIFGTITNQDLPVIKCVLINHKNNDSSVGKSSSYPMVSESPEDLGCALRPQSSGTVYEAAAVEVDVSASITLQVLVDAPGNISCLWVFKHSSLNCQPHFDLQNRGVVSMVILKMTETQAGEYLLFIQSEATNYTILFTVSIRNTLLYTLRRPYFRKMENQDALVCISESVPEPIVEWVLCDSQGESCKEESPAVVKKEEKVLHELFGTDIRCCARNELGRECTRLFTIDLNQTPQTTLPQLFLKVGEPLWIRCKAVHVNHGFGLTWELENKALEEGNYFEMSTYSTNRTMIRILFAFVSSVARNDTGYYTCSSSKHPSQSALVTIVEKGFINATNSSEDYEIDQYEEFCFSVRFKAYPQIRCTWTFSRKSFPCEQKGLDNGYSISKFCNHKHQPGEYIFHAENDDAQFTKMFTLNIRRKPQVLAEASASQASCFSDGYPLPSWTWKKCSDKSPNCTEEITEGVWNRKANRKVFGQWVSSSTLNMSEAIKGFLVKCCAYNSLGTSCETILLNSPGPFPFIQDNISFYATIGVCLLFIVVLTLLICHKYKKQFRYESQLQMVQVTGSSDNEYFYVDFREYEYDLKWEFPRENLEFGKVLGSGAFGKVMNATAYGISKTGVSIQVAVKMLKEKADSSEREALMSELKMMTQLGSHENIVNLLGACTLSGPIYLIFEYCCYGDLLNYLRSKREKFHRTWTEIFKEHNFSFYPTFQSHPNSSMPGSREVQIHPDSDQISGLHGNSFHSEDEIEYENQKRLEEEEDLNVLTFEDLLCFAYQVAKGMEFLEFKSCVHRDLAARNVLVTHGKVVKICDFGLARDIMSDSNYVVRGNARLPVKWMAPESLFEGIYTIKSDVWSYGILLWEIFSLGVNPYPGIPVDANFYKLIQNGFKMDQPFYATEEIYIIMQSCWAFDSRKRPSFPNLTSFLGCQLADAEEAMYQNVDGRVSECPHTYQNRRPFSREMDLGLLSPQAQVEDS
T1 sequence (Q06187 whole entry): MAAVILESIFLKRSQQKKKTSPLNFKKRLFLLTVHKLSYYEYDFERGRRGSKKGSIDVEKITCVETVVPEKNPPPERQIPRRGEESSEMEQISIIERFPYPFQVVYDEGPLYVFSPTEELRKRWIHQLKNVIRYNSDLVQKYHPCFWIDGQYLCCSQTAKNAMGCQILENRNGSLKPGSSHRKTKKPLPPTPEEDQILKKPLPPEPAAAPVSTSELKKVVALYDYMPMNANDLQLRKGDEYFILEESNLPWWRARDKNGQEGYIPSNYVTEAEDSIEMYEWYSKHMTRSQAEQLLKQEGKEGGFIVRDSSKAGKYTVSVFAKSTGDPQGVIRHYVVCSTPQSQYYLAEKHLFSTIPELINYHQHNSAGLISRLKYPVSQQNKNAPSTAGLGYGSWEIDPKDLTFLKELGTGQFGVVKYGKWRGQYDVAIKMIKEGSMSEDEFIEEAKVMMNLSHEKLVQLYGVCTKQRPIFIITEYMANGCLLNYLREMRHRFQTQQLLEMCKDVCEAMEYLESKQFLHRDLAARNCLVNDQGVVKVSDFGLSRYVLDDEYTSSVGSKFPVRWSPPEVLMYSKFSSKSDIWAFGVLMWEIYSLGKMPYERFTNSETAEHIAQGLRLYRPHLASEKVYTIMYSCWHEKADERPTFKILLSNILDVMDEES
CYP3A4, sequence (P08684 whole entry): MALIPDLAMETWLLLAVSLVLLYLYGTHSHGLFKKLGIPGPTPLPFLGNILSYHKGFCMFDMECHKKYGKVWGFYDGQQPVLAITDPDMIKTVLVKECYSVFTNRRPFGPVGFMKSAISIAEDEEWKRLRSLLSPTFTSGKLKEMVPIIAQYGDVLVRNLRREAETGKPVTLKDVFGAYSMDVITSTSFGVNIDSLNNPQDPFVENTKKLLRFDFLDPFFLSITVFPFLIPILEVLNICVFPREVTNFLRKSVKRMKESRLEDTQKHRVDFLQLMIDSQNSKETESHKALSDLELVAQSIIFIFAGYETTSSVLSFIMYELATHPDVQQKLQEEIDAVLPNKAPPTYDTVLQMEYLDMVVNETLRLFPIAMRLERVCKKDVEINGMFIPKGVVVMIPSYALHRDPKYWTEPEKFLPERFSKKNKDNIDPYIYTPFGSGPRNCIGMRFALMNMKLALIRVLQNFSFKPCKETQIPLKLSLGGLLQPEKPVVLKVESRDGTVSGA

## CC(C)(C)c1cc(NC(=O)Nc2ccc(-c3cn4c(n3)sc3cc(OCCCN5CCOCC5)ccc34)cc2)no1
[1]
  IC50: 0.79 nM

## CC(C)(C)c1cc(NC(=O)Nc2ccc(-c3cn4c(n3)sc3cc(OCCN5CCCCC5)ccc34)cc2)no1
[1]
  IC50: 0.88 nM

## COc1ccc(F)cc1C(=O)NCc1ccc(-c2nn([C@H](C)C(F)(F)F)c(N)c2C(N)=O)cc1
[2]
  IC50: 21.2 nM
[3]
  IC50: 5.69 nM
Clinical [4]
  bioavailability: 85.5%
Clinical [5]
  half-life: 1140 min

## Cc1nsc(-c2nnc3n2CCN(C(=O)c2ccc(F)cc2)[C@@H]3C)n1 [FEZOLINETANT]
Neuromedin-K receptor
  Ki: 21.8 nM
Clinical [5]
  half-life: 576 min
Clinical [6]
  Cmax: 1.5 ng/mL
Clinical [7]
  Vd: 189 L

## N#CCNC(=O)c1ccc(-c2ccnc(Nc3ccc(N4CCOCC4)cc3)n2)cc1 [MOMELOTINIB]
[8]
  Cmax: 479 ng/mL
[9]
  Vd: 984 L
[10]
  fraction unbound: 0.09

## CCC[C@H](N[C@H]1CCc2cc(F)cc(F)c2C1)C(=O)Nc1cn(C(C)(C)CNCC(C)(C)C)cn1 [NIROGACESTAT]
[11]
  Cmax: 508 ng/mL
[12]
  AUC: 3370 ng·h/mL
Clinical [4]
  bioavailability: 19%

## CC1(C)CCC(C)(C)c2cc(Cn3cccn3)c(/C=C/c3ccc(C(=O)O)cc3)cc21 [PALOVAROTENE]
CYP3A4
  inhibition at 10 µM: 99%

## C=CC(=O)N1C[C@H](Nc2ncnc3[nH]ccc23)CC[C@@H]1C [RITLECITINIB]
Clinical [4]
  bioavailability: 64%

## C[C@@]1(C(=O)N[C@@H](CCC(=O)O)C(=O)O)CCCN1C(=O)CN [TROFINETIDE] (H-Gly-[αMeP]-Glu-OH)
In vivo
  half-life: 90 min

Source: ChEMBL document CHEMBL6127047, “Nitrogen-containing heterocyclic drug products approved by the FDA in 2023: Synthesis and biological activity” (Eur J Med Chem, 2024)
